Data as given in the supplement of paper PMC10307832.

What was measured:
Test in all cases: relative viability (nuclei count vs DMSO), 5 days (fraction); higher = more cells survive
Omipalisib + Olaparib = compound: COc1ncc(-c2ccc3nccc(-c4ccnnc4)c3c2)cc1NS(=O)(=O)c1ccc(F)cc1F [Omipalisib] + O=C(c1cc(Cc2n[nH]c(=O)c3ccccc23)ccc1F)N1CCN(C(=O)C2CC2)CC1 [Olaparib] (partner 8 µM)
Method in brief: (§1)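 Each reported value is a median over duplicate plates. It expresses relative viability: treated-well nuclei count divided by vehicle-well nuclei count. Lung cancer cell lines in 1536-well plates were dosed by pin tool a day after seeding, alone with one drug or with a fixed anchor-drug dose plus five library-drug doses (not always all listed) in √10 steps, and nuclei were counted after 5 days.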

Omipalisib + Luminespib = compound: COc1ncc(-c2ccc3nccc(-c4ccnnc4)c3c2)cc1NS(=O)(=O)c1ccc(F)cc1F [Omipalisib] + CCNC(=O)c1noc(-c2cc(C(C)C)c(O)cc2O)c1-c1ccc(CN2CCOCC2)cc1 [Luminespib] (partner 0.01 µM)
Method in brief: as §1

Omipalisib + Trametinib = compound: COc1ncc(-c2ccc3nccc(-c4ccnnc4)c3c2)cc1NS(=O)(=O)c1ccc(F)cc1F [Omipalisib] + CC(=O)Nc1cccc(-n2c(=O)n(C3CC3)c(=O)c3c(Nc4ccc(I)cc4F)n(C)c(=O)c(C)c32)c1 [Trametinib] (partner 0.02 µM)
Method in brief: as §1

Omipalisib + Decitabine = compound: COc1ncc(-c2ccc3nccc(-c4ccnnc4)c3c2)cc1NS(=O)(=O)c1ccc(F)cc1F [Omipalisib] + Nc1ncn([C@H]2C[C@H](O)[C@@H](CO)O2)c(=O)n1 [Decitabine] (partner 2 µM)
Method in brief: as §1

Omipalisib + Dasatinib = compound: COc1ncc(-c2ccc3nccc(-c4ccnnc4)c3c2)cc1NS(=O)(=O)c1ccc(F)cc1F [Omipalisib] + Cc1nc(Nc2ncc(C(=O)Nc3c(C)cccc3Cl)s2)cc(N2CCN(CCO)CC2)n1 [Dasatinib] (partner 0.075 µM)
Method in brief: as §1

Omipalisib + Vorinostat = compound: COc1ncc(-c2ccc3nccc(-c4ccnnc4)c3c2)cc1NS(=O)(=O)c1ccc(F)cc1F [Omipalisib] + O=C(CCCCCCC(=O)Nc1ccccc1)NO [Vorinostat] (partner 1 µM)
Method in brief: as §1

Omipalisib + Pemetrexed = compound: COc1ncc(-c2ccc3nccc(-c4ccnnc4)c3c2)cc1NS(=O)(=O)c1ccc(F)cc1F [Omipalisib] + Nc1nc2[nH]cc(CCc3ccc(C(=O)N[C@@H](CCC(=O)O)C(=O)O)cc3)c2c(=O)[nH]1 [Pemetrexed] (partner 0.2 µM)
Method in brief: as §1

Omipalisib + Tozasertib = compound: COc1ncc(-c2ccc3nccc(-c4ccnnc4)c3c2)cc1NS(=O)(=O)c1ccc(F)cc1F [Omipalisib] + Cc1cc(Nc2cc(N3CCN(C)CC3)nc(Sc3ccc(NC(=O)C4CC4)cc3)n2)n[nH]1 [Tozasertib] (partner 0.1 µM)
Method in brief: as §1

Omipalisib + OSI-027 = compound: COc1ncc(-c2ccc3nccc(-c4ccnnc4)c3c2)cc1NS(=O)(=O)c1ccc(F)cc1F [Omipalisib] + COc1cccc2cc(-c3nc([C@H]4CC[C@H](C(=O)O)CC4)n4ncnc(N)c34)[nH]c12 [OSI-027] (partner 0.5 µM)
Method in brief: as §1

Omipalisib + Phenformin = compound: COc1ncc(-c2ccc3nccc(-c4ccnnc4)c3c2)cc1NS(=O)(=O)c1ccc(F)cc1F [Omipalisib] + N=C(N)NC(=N)NCCc1ccccc1 [Phenformin] (partner 250 µM)
Method in brief: as §1

Omipalisib + AZD7762 = compound: COc1ncc(-c2ccc3nccc(-c4ccnnc4)c3c2)cc1NS(=O)(=O)c1ccc(F)cc1F [Omipalisib] + NC(=O)Nc1cc(-c2cccc(F)c2)sc1C(=O)N[C@H]1CCCNC1 [AZD7762] (partner 0.2 µM)
Method in brief: as §1

Omipalisib + Palbociclib = compound: COc1ncc(-c2ccc3nccc(-c4ccnnc4)c3c2)cc1NS(=O)(=O)c1ccc(F)cc1F [Omipalisib] + CC(=O)c1c(C)c2cnc(Nc3ccc(N4CCNCC4)cn3)nc2n(C2CCCC2)c1=O [Palbociclib] (partner 0.5 µM)
Method in brief: as §1

Omipalisib = compound: COc1ncc(-c2ccc3nccc(-c4ccnnc4)c3c2)cc1NS(=O)(=O)c1ccc(F)cc1F [Omipalisib]
Method in brief: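 Vehicle-anchored 1536-well plates of lung cancer cell lines, held overnight at 37 °C, were pinned with five library-drug doses (not always all listed) spaced by √10. No medium change followed over the next 5 days, after which the cells were fixed, permeabilised and Hoechst-stained together and imaged at 4×. Nuclei were counted with MetaXpress, and viability is treated-well nuclei over vehicle-well nuclei, taken as a median across plates. Plates passed with control CV below 25% and at least one doubling.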

NCI-H522
relative viability (Omipalisib + Olaparib; first compound 0.0003 µM): 0.532 | relative viability (Omipalisib + Olaparib; first compound 0.003 µM): 0.614 | relative viability (Omipalisib + Olaparib; first compound 0.03 µM): 0.505 | relative viability (Omipalisib + Luminespib; first compound 0.0003 µM): 1.04 | relative viability (Omipalisib + Luminespib; first compound 0.003 µM): 1.89 | relative viability (Omipalisib + Luminespib; first compound 0.03 µM): 0.652 | relative viability (Omipalisib + Trametinib; first compound 0.0003 µM): 0.746 | relative viability (Omipalisib + Trametinib; first compound 0.003 µM): 0.604 | relative viability (Omipalisib + Trametinib; first compound 0.03 µM): 0.443 | relative viability (Omipalisib + Decitabine; first compound 0.0003 µM): 0.665 | relative viability (Omipalisib + Decitabine; first compound 0.003 µM): 0.596 | relative viability (Omipalisib + Decitabine; first compound 0.03 µM): 0.595 | relative viability (Omipalisib + Dasatinib; first compound 0.0003 µM): 0.857 | relative viability (Omipalisib + Dasatinib; first compound 0.003 µM): 0.745 | relative viability (Omipalisib + Dasatinib; first compound 0.03 µM): 0.626 | relative viability (Omipalisib + Vorinostat; first compound 0.0003 µM): 0.837 | relative viability (Omipalisib + Vorinostat; first compound 0.003 µM): 0.766 | relative viability (Omipalisib + Vorinostat; first compound 0.03 µM): 0.724 | relative viability (Omipalisib + Pemetrexed; first compound 0.0003 µM): 0.963 | relative viability (Omipalisib + Pemetrexed; first compound 0.003 µM): 0.932 | relative viability (Omipalisib + Pemetrexed; first compound 0.03 µM): 0.636 | relative viability (Omipalisib + Tozasertib; first compound 0.0003 µM): 0.515 | relative viability (Omipalisib + Tozasertib; first compound 0.003 µM): 0.451 | relative viability (Omipalisib + Tozasertib; first compound 0.03 µM): 0.438 | relative viability (Omipalisib + OSI-027; first compound 0.0003 µM): 0.69 | relative viability (Omipalisib + OSI-027; first compound 0.003 µM): 0.641 | relative viability (Omipalisib + OSI-027; first compound 0.03 µM): 0.531 | relative viability (Omipalisib + Phenformin; first compound 0.0003 µM): 0.604 | relative viability (Omipalisib + Phenformin; first compound 0.003 µM): 0.559 | relative viability (Omipalisib + Phenformin; first compound 0.03 µM): 0.583 | relative viability (Omipalisib + AZD7762; first compound 0.0003 µM): 0.652 | relative viability (Omipalisib + AZD7762; first compound 0.003 µM): 0.58 | relative viability (Omipalisib + AZD7762; first compound 0.03 µM): 0.839 | relative viability (Omipalisib + Palbociclib; first compound 0.0003 µM): 1.01 | relative viability (Omipalisib + Palbociclib; first compound 0.003 µM): 0.823 | relative viability (Omipalisib + Palbociclib; first compound 0.03 µM): 0.532 | relative viability (Omipalisib; 0.0003 µM): 0.838 | relative viability (Omipalisib; 0.003 µM): 0.912 | relative viability (Omipalisib; 0.03 µM): 0.694
